Like-named read-outs stand apart in the source and are kept apart here.
Assays:
Type in all cases: in vivo
[1] = tested on: housefly (Musca domestica); test: housefly knockdown test; details: sprayed with formulation containing 3500 ppm; knockdown after 30 minutes, in comparison to a control
Protocol: In one experiment, designated as the housefly knockdown test, 50, 3-day-old, unsexed, adult houseflies were anesthetized with carbon dioxide gas and placed into a fine mesh wire cage. The flies were allowed to recover completely from the effects of the carbon dioxide gas and were then sprayed with a test formulation containing 3500 ppm of the test compound. After 30 minutes the knockdown value of the test compound was determined. Knockdown is considered as an individual fly that is unable to move its body length, and the knowndown value is given as a percent of down flies based on the number of down flies in comparison to a control.

[2] = tested on: housefly (Musca domestica); test: housefly topical test; details: read-out: % Control Housefly Topical Test
Protocol: In another experiment designated as the housefly topical test, each of fifty flies was contacted with a test compound by applying […] of test formulation containing 3500 ppm of active chemical to the dorsum of its thorax. The flies were then placed in a wire mesh cage where they were supplied with sugar syrup. At the end of a 24 hour period the mortality of the flies was observed and rated in comparison to a control.

[3] = tested on: leaf rust of wheat (Puccinia rubigo-vera); test: protection of wheat against leaf rust of wheat; details: wheat plants sprayed with 1000 ppm solutions before inoculation; about 8 days in greenhouse; in comparison with untreated controls
Protocol: In one experiment carried out for the protection of wheat against leaf rust of wheat (Puccinia rubigo-vera), 6 day old wheat plants were sprayed with 1000 ppm solutions of the test compounds. After the spray film had dried, the plants were inoculated by shaking a 9 to 13 day old leaf rust of wheat culture over the foliage. Immediately after inoculation the plants were placed in a 20° C. moist chamber overnight. The plants were then transferred to a greenhouse and kept there for a period of about 8 days. After this time the extent of the disease was observed and rated in comparison with untreated controls.

[4] = tested on: pea aphid (Acyrthosiphon pisum); test: whole plant or invertebrate; details: sprayed at 3500 ppm, aqueous emulsion of an acetone solution, 48 hours, in comparison to a control, read-out: mortality of the pea aphids
From the text: The insecticidal activity of the compounds of this invention was further illustrated in an experiment for the control of the pea aphid (Acyrthosiphon pisum). In this experiment a ten day old Laxton pea plant contained in a small plastic pot was infested with ten adult pea aphids. The plant and pea aphids were then sprayed with the test compound formulated as an aqueous emulsion of an acetone solution, at a concentration of 3500 ppm. The infested plants were then placed in a holding chamber maintained at a constant temperature for a period of 48 hours. After this time the mortality of the aphids was determined and rated on a percent basis in comparison to a control. In this experiment the compounds 1-(α-thiocyanoacetyl) pyrrolidine and 1-(α-thiocyanoacetyl)-2,6-dimethylpiperidine gave 100% mortality of the pea aphids.

[5] = 1 ml of formulation containing 3500 ppm applied to dorsum of thorax, mortality after 24 hours, in comparison to a control

| SMILES | % Control Housefly Knockdown Test [1] [%] | mortality at 3500 µg/mL [2, 5] [%] | % Control (leaf rust of wheat) [3] [%] | mortality at 3500 ppm [4] [%] | mortality at 3500 µg/mL ([2]; 24 h) [%] |
| --- | --- | --- | --- | --- | --- |
| N#CSCC(=O)N1CCCCCC1 [1-(α-thiocyanoacetyl) hexamethylenimine] | 94 | 31 |  |  |  |
| CC1CCC(C)N1C(=O)CSC#N (stereo not drawn) [1-(α-thiocyanoacetyl)-2,5-dimethylpyrrolidine] | 100 | 100 |  |  |  |
| CC1CCCC(C)N1C(=O)CSC#N (stereo not drawn) [1-(α-thiocyanoacetyl)-2,6-dimethylpiperidine] | 92 |  | 96 | 100 | 94 |
| CC1CCCN(C(=O)CSC#N)C1 (stereo not drawn) [1-(α-thiocyanoacetyl)-3-pipecoline] | 100 | 100 | 90 |  |  |
| CC1CCN(C(=O)CSC#N)CC1 [1-(α-thiocyanoacetyl)-4-pipecoline] | 100 | 100 | 99 |  |  |
| N#CSCC(=O)N1CCCC1 [1-(γ-Thiocyanoacetyl) pyrrolidine, 1-(α-thiocyanoacetyl) pyrrolidine] |  |  | 98 | 100 |  |
